Test [1] deals with human endometrial cancer cell line MFE-280. Put plainly: Measurement of antitumor effect in MFE-280 cancer-bearing nude mice. It counts as in vivo. The note with it: MFE-280 xenograft in BALB/c nude mice, 200 mg/kg orally once daily, 11th day.
For test [2], the target named is T1, DDR1 (Homo sapiens (Human), UniProt Q08345). Put plainly: Measurement of DDR1 binding activity (LanthaScreen Eu Kinase Binding Assay). As to the method:
2. Measurement of DDR1 Binding Activity
DDR1 binding activity was measured using the LanthaScreen (Registered trademark) Eu Kinase Binding Assay (manufactured by Life Technologies Corporation). […] After one-hour reaction at room temperature, the fluorescence resonance energy transfer was measured.
(In general: In TR-FRET formats the signal depends on donor and acceptor labels being close together.)

Test [3] has as its target T1, DDR1. Put plainly: Measurement of DDR1 enzyme inhibitory activity (phosphorylation of biotinylated peptide, time-resolved fluorescence). To be noted: human DDR1 enzyme, biotinylated peptide phosphorylation; read-out: DDR1 enzyme inhibition assay IC50. It is filed as biochemical. Summed up:
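Baculovirus-expressed human DDR1 phosphorylated a biotinylated peptide, and inhibition of that phosphorylation was measured. Phosphopeptide was detected by time-resolved fluorescence using europium cryptate–labelled anti-phosphotyrosine antibody with streptavidin-XL665.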

Structures are written as SMILES. pIC50: −log10 of the molar value.

T1 sequence (Q08345 19-913): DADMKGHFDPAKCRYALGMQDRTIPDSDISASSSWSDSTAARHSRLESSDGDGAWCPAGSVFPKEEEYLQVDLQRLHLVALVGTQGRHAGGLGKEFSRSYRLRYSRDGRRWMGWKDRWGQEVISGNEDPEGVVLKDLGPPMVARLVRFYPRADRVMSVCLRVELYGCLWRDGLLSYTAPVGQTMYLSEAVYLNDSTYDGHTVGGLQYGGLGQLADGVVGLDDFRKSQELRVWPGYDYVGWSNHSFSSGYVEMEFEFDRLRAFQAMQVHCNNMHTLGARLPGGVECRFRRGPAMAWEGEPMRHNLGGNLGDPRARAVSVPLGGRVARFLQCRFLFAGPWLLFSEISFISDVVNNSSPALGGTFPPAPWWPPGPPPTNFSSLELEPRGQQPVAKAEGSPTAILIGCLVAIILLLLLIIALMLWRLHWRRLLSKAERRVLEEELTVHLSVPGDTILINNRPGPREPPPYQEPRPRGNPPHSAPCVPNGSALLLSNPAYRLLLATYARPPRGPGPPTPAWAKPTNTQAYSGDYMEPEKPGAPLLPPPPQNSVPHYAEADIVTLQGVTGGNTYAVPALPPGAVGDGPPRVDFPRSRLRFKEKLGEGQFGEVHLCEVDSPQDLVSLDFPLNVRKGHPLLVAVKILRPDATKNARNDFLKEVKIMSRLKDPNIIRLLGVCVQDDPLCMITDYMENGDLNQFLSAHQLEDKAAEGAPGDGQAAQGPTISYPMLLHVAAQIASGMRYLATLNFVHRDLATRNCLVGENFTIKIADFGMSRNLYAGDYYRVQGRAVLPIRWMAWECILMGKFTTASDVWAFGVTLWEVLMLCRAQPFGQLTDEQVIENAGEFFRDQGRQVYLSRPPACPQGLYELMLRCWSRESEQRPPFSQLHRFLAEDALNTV

Consider `CCS(=O)(=O)c1ccc(Cl)cc1Nn1cnc2ccc(OC(F)(F)F)cc2c1=O` [Compound A-45, 3-(5-Chloro-2-ethylsulfonylanilino)-6-(trifluoromethoxy)quinazolin-4-one], for which, in test [1], the “TGI after 11 days” value was 72%.

The term pIC50 denotes the IC50 on a negative log10 scale, so that one unit is a factor of ten. Consider `CCS(=O)(=O)c1ccc(Cl)cc1Cn1cnc2c(Cl)c(CO)c(C(F)(F)F)cc2c1=O` [Compound K-26, 8-Chloro-3-[(5-chloro-2-ethylsulfonylphenyl)methyl]-7-(hydroxymethyl)-6-(trifluoromethyl)quinazolin-4-one], for which, at DDR1 [2], the negative-log IC50 (pIC50) was 6.62.

On to `CCS(=O)(=O)c1ccc(Cl)cc1Nn1cnc2ncc(Br)cc2c1=O` [Compound A-17, 6-Bromo-3-(5-chloro-2-ethylsulfonylanilino)pyrido[2,3-d]pyrimidin-4-one], for which the pIC50 on DDR1 [3] was 6.57.

Take `CCSc1ccc(OC)cc1Nn1cnc2c(Br)cc(C(F)(F)F)cc2c1=O` [Compound C-29, 8-Bromo-3-(2-ethylsulfanyl-5-methoxyanilino)-6-(trifluoromethyl)quinazolin-4-one]: the negative-log IC50 (pIC50) on DDR1 [3] is 6.80.

With `Cc1cc(Br)c2ncn(Nc3cc(Cl)ccc3S(C)(=O)=O)c(=O)c2c1` [Compound B-2, 8-Bromo-3-(5-chloro-2-methylsulfonylanilino)-6-methylquinazolin-4-one], the negative logarithm of the IC50 (pIC50) at DDR1 [3] was 6.80.

As to `CCS(=O)(=O)c1ncc(Cl)cc1Nn1cnc2c(Br)cc(C)cc2c1=O` [Compound D-5, 8-Bromo-3-[(5-chloro-2-ethylsulfonylpyridin-3-yl)amino]-6-methylquinazolin-4-one], the pIC50 on DDR1 [3] was 6.89.

Turning to `CCSc1ncc(Cl)cc1Nn1cnc2c(Br)cccc2c1=O` [Compound D-1, 8-Bromo-3-[(5-chloro-3-ethylsulfanylpyridin-3-yl)amino]quinazolin-4-one], the pIC50 at DDR1 [3] was 5.63.

`CCS(=O)(=O)c1ccc(Cl)cc1Nn1cnc2cc(Br)c(C(F)F)cc2c1=O` [Compound A-6, 7-Bromo-3-(5-chloro-2-ethylsulfonylanilino)-6-(difluoromethyl)quinazolin-4-one]: the pIC50 at DDR1 [3] is 7.15.

Consider `CCS(=O)(=O)c1ccc(Cl)cc1Nn1cnc2ccc(S(C)(=O)=O)cc2c1=O` [Compound A-49, 3-(5-Chloro-2-ethylsulfonylanilino)-6-methylsulfonylquinazolin-4-one], for which, on DDR1 [3], the pIC50 is 5.67.

With `CCSc1ccc(Br)cc1Nn1cnc2c(Br)cc(OC(F)(F)F)cc2c1=O` [Compound C-23, 8-Bromo-3-(5-bromo-2-ethylsulfanylanilino)-6-(trifluoromethoxy)quinazolin-4-one], the pIC50 on DDR1 [3] was 6.40.

Regarding `CCS(=O)(=O)c1ccc(Br)cc1Nn1cnc2c(Br)cc(C(F)(F)F)cc2c1=O` [Compound C-26, 8-Bromo-3-(5-bromo-2-ethylsulfonylanilino)-6-(trifluoromethyl)quinazolin-4-one], the pIC50 on DDR1 [3] is 6.82.

On to `CCSc1ccc(Cl)cc1Nn1cnc2cc3c(cc2c1=O)OCCO3` [Compound A-42, 3-(5-Chloro-2-ethylsulfanylanilino)-7,8-dihydro-[1,4]dioxino[2,3-g]quinazolin-4-one], for which the pIC50 at DDR1 [3] is 5.51.

Turning to `CCS(=O)(=O)c1ccc(Cl)cc1Cn1cnc2c(Br)c(C)c(Br)cc2c1=O` [Compound E-17, 6,8-Dibromo-3-[(5-chloro-2-ethylsulfonylphenyl)methyl]-7-methylquinazolin-4-one], the pIC50 at DDR1 [3] is 6.82.

As for `CCSc1ccc(Cl)cc1Nn1cnc2ccc(C(F)(F)F)cc2c1=O` [Compound A-9, 3-(5-Chloro-2-ethylsulfanylanilino)-6-(trifluoromethyl)quinazolin-4-one], the negative logarithm of the IC50 (pIC50) at DDR1 [3] is 6.74.

Regarding `CCS(=O)(=O)c1ccc(C#N)cc1Nn1cnc2c(Br)cc(C)cc2c1=O` [Compound C-2, 3-[(8-Bromo-6-methyl-4-oxoquinazolin-3-yl)amino]-4-ethylsulfonylbenzonitrile], the pIC50 at DDR1 [3] was 6.80.

With `CCS(=O)(=O)c1ccc(Cl)cc1Nn1cnc2c(I)cc(C(F)(F)F)cc2c1=O` [Compound A-13, 3-(5-Chloro-2-ethylsulfonylanilino)-8-iodo-6-(trifluromethyl)quinazolin-4-one], the pIC50 on DDR1 [3] was 6.62.

Take `C#Cc1ccc(SCC)c(Nn2cnc3c(Br)cc(C(F)(F)F)cc3c2=O)c1` [Compound C-36, 8-Bromo-3-(2-ethylsulfanyl-5-ethynylanilino)-6-(trifluoromethyl)quinazolin-4-one]: the pIC50 at DDR1 [3] was 6.55.

On to `Cc1cc(Br)c2ncn(Nc3cc(Cl)ccc3[S+]([O-])c3ccccc3)c(=O)c2c1` (centres unmarked) [Compound B-13, 3-[2-(Benzenesulfinyl)-5-chloroanilino]-8-bromo-6-methylquinazolin-4-one], for which, at DDR1 [3], the negative logarithm of the IC50 (pIC50) is 6.13.

As for `CCS(=O)(=O)c1ccc(Cl)cc1Nn1cnc2ccc(N)cc2c1=O` [Compound A-58, 6-Amino-3-(5-chloro-2-ethylsulfonylanilino)quinazolin-4-one], the negative logarithm of the IC50 (pIC50) at DDR1 [3] was 5.39.

Turning to `CCS(=O)(=O)c1ccc([N+](=O)[O-])cc1Cn1ccc2ccc(C(F)(F)F)cc2c1=O` [Compound F-6, 2-[(2-Ethylsulfonyl-5-nitrophenyl)methyl]-7-(trifluoromethyl)isoquinolin-1-one], at DDR1 [3], the pIC50 is 6.31.

Consider `CCS(=O)(=O)c1ccc(OC)cc1Nn1cnc2ccc(OC(F)(F)F)cc2c1=O` [Compound C-28, 3-(2-Ethylsulfonyl-5-methoxyanilino)-6-(trifluoromethoxy)quinazolin-4-one], for which the pIC50 at DDR1 [3] was 6.54.

On to `CCS(=O)(=O)c1ccc(Cl)cc1Cn1ccc2ccc(OC)cc2c1=O` [Compound F-3, 2-[(5-Chloro-2-ethylsulfonylphenyl)methyl]-7-methoxyisoquinolin-1-one], for which the pIC50 at DDR1 [3] is 6.31.

Consider `CCS(=O)(=O)c1ccc(Cl)cc1Nn1cnc2ncc(C(F)(F)F)cc2c1=O` [Compound A-24, 3-(5-Chloro-2-ethylsulfonylanilino)-6-(trifluoromethyl)pyrido[2,3-d]pyrimidin-4-one], for which the pIC50 at DDR1 [3] is 6.72.

For the origin of these results see US10005739B2, “Quinazolinone and isoquinolinone derivative” (CHUGAI SEIYAKU KABUSHIKI KAISHA, priority 2013, dated 2018).
